{
  "source": "patent US12077555B2",
  "about": "“STAT degraders and uses thereof” (Kymera Therapeutics, Inc., priority 2019, dated 2024)",
  "data": [
    {"target": "STAT3 (Homo sapiens, UniProt P40763)", "sequence (P40763 whole entry)": "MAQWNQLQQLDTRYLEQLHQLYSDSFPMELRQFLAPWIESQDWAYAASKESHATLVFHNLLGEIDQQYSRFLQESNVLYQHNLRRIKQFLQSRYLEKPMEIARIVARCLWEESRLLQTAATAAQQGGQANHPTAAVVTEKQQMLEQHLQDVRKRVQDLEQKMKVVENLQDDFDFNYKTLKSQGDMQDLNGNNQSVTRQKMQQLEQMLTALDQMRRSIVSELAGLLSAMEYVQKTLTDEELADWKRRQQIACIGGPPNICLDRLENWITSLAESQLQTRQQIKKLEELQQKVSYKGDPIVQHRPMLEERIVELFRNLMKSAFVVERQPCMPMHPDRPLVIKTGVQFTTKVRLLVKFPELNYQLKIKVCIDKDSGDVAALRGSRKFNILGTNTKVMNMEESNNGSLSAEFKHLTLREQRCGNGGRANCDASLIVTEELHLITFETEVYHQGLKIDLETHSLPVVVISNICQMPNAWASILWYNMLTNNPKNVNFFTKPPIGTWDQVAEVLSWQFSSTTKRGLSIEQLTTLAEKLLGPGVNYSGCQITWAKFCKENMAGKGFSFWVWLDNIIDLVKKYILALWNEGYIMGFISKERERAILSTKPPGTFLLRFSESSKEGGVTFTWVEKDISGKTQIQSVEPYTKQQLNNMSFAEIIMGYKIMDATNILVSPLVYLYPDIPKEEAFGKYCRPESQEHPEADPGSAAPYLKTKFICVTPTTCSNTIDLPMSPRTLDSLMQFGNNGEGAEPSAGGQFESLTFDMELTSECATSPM", "test": "Quantitation of STAT3 degradation in A549 cells by Western blot", "type": "cell-based", "set-up": "expressed in transfected cells; host or cells: A549", "settings": "read-out: A549 DC50, 24 hours, tested up to 30 μM or 10 μM", "in_short": "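A549 cells treated 24 h at 37° C with compound at 30, 10, 3, 1, 0.3 μM or DMSO; RIPA lysates analysed by SDS-PAGE/Western blot for total STAT3, β-actin as loading control, LI-COR fluorescence read-out. DC50 derived by sigmoidal fit of dose-dependent degradation.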", "units": {"DC50": "µM"}, "values": [
      {"smiles": "C/C(=C\\C(=O)N[C@H]1CCc2cccc3c2N(C1=O)[C@H](C(=O)N[C@@H](CCC(N)=O)[C@@H](C)OCc1ccc(CCCCC(=O)N[C@H](C(=O)N2C[C@H](O)C[C@H]2C(=O)NC2(c4ccc(-c5scnc5C)cc4)CC2)C(C)(C)C)cc1)C3)c1ccc(C(F)(F)P(=O)(O)O)cc1", "note": "[Compound I-92]", "DC50": "> 30"},
      {"smiles": "Cc1ncsc1-c1ccc(CNC(=O)[C@@H]2C[C@@H](O)CN2C(=O)[C@@H](NC(=O)CCCCc2cccc(CO[C@H](C)[C@H](CCC(N)=O)NC(=O)[C@@H]3Cc4cccc5c4N3C(=O)[C@@H](NC(=O)c3cc4cc(C(=O)P(=O)(O)O)ccc4[nH]3)CC5)c2)C(C)(C)C)cc1", "note": "[Compound I-95, diammonium 2-[[(2S,11S)-2-[[(3S,4R)-1-carbamoyl-4-[[3-(4-[[(2S)-1-[(2S,4R)-4-hydroxy-2-([[4-(4-methyl-1,3-thiazol-5-yl)phenyl]methyl]carbamoyl)pyrrolidin-1-yl]-3,3-dimethyl-1-oxobutan-2-yl]carbamoyl]butyl)phenyl]methoxy]pentan-3-yl]carbamoyl]-12-oxo-1-azatricyclo[6.4.1.0^[4,13]]trideca-4(13),5,7-trien-11-yl]carbamoyl]-1H-indole-5-carbonylphosphonate]", "DC50": "< 30"},
      {"smiles": "Cc1ncsc1-c1ccc(CNC(=O)[C@@H]2C[C@@H](O)CN2C(=O)[C@@H](NC(=O)CCC#Cc2ccc(CO[C@H](C)[C@H](CCC(N)=O)NC(=O)[C@@H]3Cc4cccc5c4N3C(=O)[C@@H](NC(=O)c3cc4cc(C(=O)P(=O)(O)O)ccc4[nH]3)CC5)cc2)C(C)(C)C)cc1", "note": "[Compound I-96, diammonium 2-[[(2S,11S)-2-[[(3S,4R)-1-carbamoyl-4-[[4-(4-[[(2S)-1-[(2S,4R)-4-hydroxy-2-([[4-(4-methyl-1,3-thiazol-5-yl)phenyl]methyl]carbamoyl)pyrrolidin-1-yl]-3,3-dimethyl-1-oxobutan-2-yl]carbamoyl]but-1-yn-1-yl)phenyl]methoxy]pentan-3-yl]carbamoyl]-12-oxo-1-azatricyclo[6.4.1.0^[4,13]]trideca-4(13),5,7-trien-11-yl]carbamoyl]-1H-indole-5-carbonylphosphonate]", "DC50": "> 30"},
      {"smiles": "Cn1c(=O)n(C2CCC(=O)NC2=O)c2ccc(CCCCCCCC(=O)N3CC[C@H]4CC[C@@H](C(=O)N[C@@H](CCC(N)=O)C(=O)NC(c5ccccc5)c5ccccc5)N4C(=O)[C@@H](NC(=O)c4cc5cc(C(=O)P(=O)(O)O)ccc5[nH]4)C3)cc21", "note": "(stereo partly drawn) [Compound I-97, 2-[[(5S,8S,10aR)-8-[[(1S)-3-carbamoyl-1-(diphenylmethylcarbamoyl)propyl]carbamoyl]-3-[8-[1-(2,6-dioxopiperidin-3-yl)-3-methyl-2-oxo-1,3-benzodiazol-5-yl]octanoyl]-6-oxo-octahydropyrrolo[1,2-a][1,5]diazocin-5-yl]carbamoyl]-1H-indole-5-carbonylphosphonic acid]", "DC50": "< 30"},
      {"smiles": "Cn1c(=O)n(C2CCC(=O)NC2=O)c2ccc(C#CCCCCC(=O)N3CC[C@H]4CC[C@@H](C(=O)N[C@@H](CCC(N)=O)C(=O)NC(c5ccccc5)c5ccccc5)N4C(=O)[C@@H](NC(=O)c4cc5cc(C(=O)P(=O)(O)O)ccc5[nH]4)C3)cc21", "note": "(stereo partly drawn) [Compound I-99, 2-[[(5S,8S,10aR)-8-[[(1S)-3-carbamoyl-1-(diphenylmethylcarbamoyl)propyl]carbamoyl]-3-[7-[1-(2,6-dioxopiperidin-3-yl)-3-methyl-2-oxo-1,3-benzodiazol-5-yl]hept-6-ynoyl]-6-oxo-octahydropyrrolo[1,2-a][1,5]diazocin-5-yl]carbamoyl]-1H-indole-5-carbonylphosphonic acid]", "DC50": "< 30"},
      {"smiles": "Cc1ncsc1-c1ccc(CNC(=O)[C@@H]2C[C@@H](O)CN2C(=O)[C@@H](NC(=O)CCCCCCc2ccc(CO[C@H](C)[C@H](CCC(N)=O)NC(=O)[C@@H]3Cc4cccc5c4N3C(=O)[C@@H](NC(=O)c3cc4cc(C(=O)P(=O)(O)O)ccc4[nH]3)CC5)cc2)C(C)(C)C)cc1", "note": "[Compound I-100]", "DC50": "< 30"},
      {"smiles": "Cc1ncsc1-c1ccc(CNC(=O)C2C[C@@H](O)CN2C(=O)[C@@H](NC(=O)CCCc2ccc(CO[C@H](C)[C@H](CCC(N)=O)NC(=O)[C@@H]3Cc4cccc5c4N3C(=O)[C@@H](NC(=O)c3cc4cc(C(=O)P(=O)(O)O)ccc4[nH]3)CC5)cc2)C(C)(C)C)cc1", "note": "(stereo partly drawn) [Compound I-101]", "DC50": "< 30"},
      {"smiles": "Cn1c(C(=O)N[C@H]2CN(C(=O)CCCCCC#Cc3cccc4c3CN(C3CCC(=O)NC3=O)C4=O)CC[C@H]3CC[C@@H](C(=O)N[C@@H](CCC(N)=O)C(=O)NC(c4ccccc4)c4ccccc4)N3C2=O)cc2cc(C(=O)P(=O)(O)O)ccc21", "note": "(stereo partly drawn) [Compound I-102, diammonium 2-[[(5S,8S,10aR)-8-[[(1S)-3-carbamoyl-1-(diphenylmethylcarbamoyl)propyl]carbamoyl]-3-[8-[2-(2,6-dioxopiperidin-3-yl)-1-oxo-3H-isoindol-4-yl]oct-7-ynoyl]-6-oxo-octahydropyrrolo[1,2-a][1,5]diazocin-5-yl]carbamoyl]-1-methylindole-5-carbonylphosphonate]", "DC50": "< 30"},
      {"smiles": "Cn1c(=O)n(C2CCC(=O)NC2=O)c2ccc(C#CCCCCCC(=O)N3CC[C@H]4CC[C@@H](C(=O)N[C@@H](CCC(N)=O)C(=O)NC(c5ccccc5)c5ccccc5)N4C(=O)[C@@H](NC(=O)c4cc5cc(C(=O)P(=O)(O)O)ccc5[nH]4)C3)cc21", "note": "(stereo partly drawn) [Compound I-104, 2-[[(5S,8S,10aR)-8-[[(1S)-3-carbamoyl-1-(diphenylmethylcarbamoyl)propyl]carbamoyl]-3-[8-[1-(2,6-dioxopiperidin-3-yl)-3-methyl-2-oxo-1,3-benzodiazol-5-yl]oct-7-ynoyl]-6-oxo-octahydropyrrolo[1,2-a][1,5]diazocin-5-yl]carbamoyl]-1H-indole-5-carbonylphosphonic acid]", "DC50": "< 30"},
      {"smiles": "Cn1c(=O)n(C2CCC(=O)NC2=O)c2ccc(C#CCCCC(=O)N3CC[C@H]4CC[C@@H](C(=O)N[C@@H](CCC(N)=O)C(=O)NC(c5ccccc5)c5ccccc5)N4C(=O)[C@@H](NC(=O)c4cc5cc(C(=O)P(=O)(O)O)ccc5[nH]4)C3)cc21", "note": "(stereo partly drawn) [Compound I-105, 2-[[(5S,8S,10aR)-8-[[(1S)-3-carbamoyl-1-(diphenylmethylcarbamoyl)propyl]carbamoyl]-3-[6-[1-(2,6-dioxopiperidin-3-yl)-3-methyl-2-oxo-1,3-benzodiazol-5-yl]hex-5-ynoyl]-6-oxo-octahydropyrrolo[1,2-a][1,5]diazocin-5-yl]carbamoyl]-1H-indole-5-carbonylphosphonic acid]", "DC50": "< 30"},
      {"smiles": "Cn1c(=O)n(C2CCC(=O)NC2=O)c2ccc(CCCCCC(=O)N3CC[C@H]4CC[C@@H](C(=O)N[C@@H](CCC(N)=O)C(=O)NC(c5ccccc5)c5ccccc5)N4C(=O)[C@@H](NC(=O)c4cc5cc(C(=O)P(=O)(O)O)ccc5[nH]4)C3)cc21", "note": "(stereo partly drawn) [Compound I-107, 2-[[(5S,8S,10aR)-8-[[(1S)-3-carbamoyl-1-(diphenylmethylcarbamoyl)propyl]carbamoyl]-3-[6-[1-(2,6-dioxopiperidin-3-yl)-3-methyl-2-oxo-1,3-benzodiazol-5-yl]hexanoyl]-6-oxo-octahydropyrrolo[1,2-a][1,5]diazocin-5-yl]carbamoyl]-1H-indole-5-carbonylphosphonic acid]", "DC50": "< 30"},
      {"smiles": "C/C(=C\\C(=O)N[C@H]1CCc2cccc3c2N(C1=O)[C@H](C(=O)N[C@@H](CCC(N)=O)[C@@H](C)OCCCc1ccc2c(c1)n(C)c(=O)n2C1CCC(=O)NC1=O)C3)c1ccc(C(F)(F)P(=O)(O)O)cc1", "note": "(stereo partly drawn) [Compound I-110, diammonium [4-[(1E)-1-[[(2S,11S)-2-[[(3S,4R)-1-carbamoyl-4-[3-[1-(2,6-dioxopiperidin-3-yl)-3-methyl-2-oxo-1,3-benzodiazol-5-yl]propoxy]pentan-3-yl]carbamoyl]-12-oxo-1-azatricyclo[6.4.1.0^[4,13]]trideca-4(13),5,7-trien-11-yl]carbamoyl]prop-1-en-2-yl]phenyl]difluoromethylphosphonate]", "DC50": "> 30"},
      {"smiles": "C/C(=C\\C(=O)N[C@H]1CN(C(=O)CCCCCCc2ccc3c(c2)n(C)c(=O)n3C2CCC(=O)NC2=O)CC[C@H]2CC[C@@H](C(=O)N[C@@H](CCC(N)=O)C(=O)NC(c3ccccc3)c3ccccc3)N2C1=O)c1ccc(C(F)(F)P(=O)(O)O)cc1", "note": "(stereo partly drawn) [Compound I-112]", "DC50": "< 30"},
      {"smiles": "C/C(=C\\C(=O)N[C@H]1CN(C(=O)CCCCCCCc2ccc3c(c2)n(C)c(=O)n3C2CCC(=O)NC2=O)CC[C@H]2CC[C@@H](C(=O)N[C@@H](CCC(N)=O)C(=O)NC(c3ccccc3)c3ccccc3)N2C1=O)c1ccc(C(F)(F)P(=O)(O)O)cc1", "note": "(stereo partly drawn) [Compound I-113, [4-[(1E)-1-[[(5S,8S,10aR)-8-[[(1S)-3-carbamoyl-1-(diphenylmethylcarbamoyl)propyl]carbamoyl]-3-[8-[1-(2,6-dioxopiperidin-3-yl)-3-methyl-2-oxo-1,3-benzodiazol-5-yl]octanoyl]-6-oxo-octahydropyrrolo[1,2-a][1,5]diazocin-5-yl]carbamoyl]prop-1-en-2-yl]phenyl]difluoromethylphosphonic acid]", "DC50": "> 30"},
      {"smiles": "C/C(=C\\C(=O)N[C@H]1CN(C(=O)CCCCCc2ccc3c(c2)n(C)c(=O)n3C2CCC(=O)NC2=O)CC[C@H]2CC[C@@H](C(=O)N[C@@H](CCC(N)=O)C(=O)NC(c3ccccc3)c3ccccc3)N2C1=O)c1ccc(C(F)(F)P(=O)(O)O)cc1", "note": "(stereo partly drawn) [Compound I-114, [4-[(1E)-1-[[(5S,8S,10aR)-8-[[(1S)-3-carbamoyl-1-(diphenylmethylcarbamoyl)propyl]carbamoyl]-3-[6-[1-(2,6-dioxopiperidin-3-yl)-3-methyl-2-oxo-1,3-benzodiazol-5-yl]hexanoyl]-6-oxo-octahydropyrrolo[1,2-a][1,5]diazocin-5-yl]carbamoyl]prop-1-en-2-yl]phenyl]difluoromethylphosphonic acid]", "DC50": "> 30"}
    ]}
  ]
}
